Reference: patent EP0328389A2, “Compostions for treating intracranial tumors” (MATRIX PHARMACEUTICAL INC., priority 1988, dated 1989)

Key:
[1] = Acute drug toxicity: deaths by day 7 after intracranial drug injection; format: in vivo, mice; details: mouse, in vivo, 0.2 mg/kg; read-out: % of Mice That Died
Description: (§1) The use of vinblastine (VBL) and vincristine (VC) alone and in combination with a protein carrier on the growth of experimental murine tumors grown intracranially was investigated. Halothane-anesthesized C3H mice 12-16 weeks in age were injected intracranially (i.c.) into the right frontal lobe with 10 µl total volume of Hank's balanced salt solution containing 5 X 10⁴ KHT fibrosarcoma cells through a burr hole made in the exposed cranium with a compressed air-driven drill. Following injection, the cranium was sealed with bone wax, and the overlying skin was sutured.
(§2) The test solution with and without matrix and the saline control were delivered intracranially (i.c.) in an injection volume of 10 µl through the same burr hole used for tumor cell inoculation. All mice were observed daily.
(§3) The acute drug toxicity level was determined by the percentage of animal survival on day 7 following drug injection. A comparison of the acute toxicity (deaths) of mice treated i.c. with matrix-associated VBL to aqueous VBL (10 µl) injection volume to the right frontal lobe is shown in Table 1 below. […]

C3H mice = assay: as above; format: in vivo; details: 0.2 mg/kg vinblastine i.c., 10 µl, right frontal lobe, 5 days post tumor implantation; deaths by day 7 following drug injection; epinephrine 0.1 mg/kg; matrix 1:1 bovine collagen 36 mg/ml
Description: as §1, §2, §3

Q: Which mortality at 168 h [1] does the source give for `CC[C@]1(O)C[C@@H]2CN(CCc3c([nH]c4ccccc34)[C@@](C(=O)OC)(c3cc4c(cc3OC)N(C)[C@H]3[C@@](O)(C(=O)OC)[C@H](OC(C)=O)[C@]5(CC)C=CCN6CC[C@]43[C@@H]65)C2)C1` [Vinblastine, vinblastine] here?
A: Its mortality at 168 h is 26%.

Q: And the “Number of Mice That Died” value (C3H mice)?
A: Its value is 7.
